Results as given in patent US8022206B2 (OSI Pharmaceuticals, LLC, priority 2008, dated 2011).

How the values were obtained:
RON (human) = RON (human) (Homo sapiens, UniProt Q04912); test: RON (human) AlphaScreen kinase assay, Km of ATP; type: biochemical; details: AlphaScreen, Km of ATP; read-out: RON biochemical IC50
Summary of the method: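 Detection used PT66 AlphaScreen beads added in Tris pH 7.5/NaCl/EDTA/BSA buffer, read after 1 h incubation. Vehicle-only DMSO wells served as controls.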

MET (human) = MET (human) (Homo sapiens, UniProt P08581); test: MET (human) AlphaScreen kinase assay, Km of ATP; type: biochemical; details: AlphaScreen, Km of ATP; read-out: Met biochemical IC50
Summary of the method: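 Human MET at lot-optimised concentration in 50 mM Tris pH 7.4 buffer with 1 mM DTT, compound at 1% DMSO final; enzyme starts the reaction, 60 min at RT.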

RON (human), sequence (Q04912 25-1400): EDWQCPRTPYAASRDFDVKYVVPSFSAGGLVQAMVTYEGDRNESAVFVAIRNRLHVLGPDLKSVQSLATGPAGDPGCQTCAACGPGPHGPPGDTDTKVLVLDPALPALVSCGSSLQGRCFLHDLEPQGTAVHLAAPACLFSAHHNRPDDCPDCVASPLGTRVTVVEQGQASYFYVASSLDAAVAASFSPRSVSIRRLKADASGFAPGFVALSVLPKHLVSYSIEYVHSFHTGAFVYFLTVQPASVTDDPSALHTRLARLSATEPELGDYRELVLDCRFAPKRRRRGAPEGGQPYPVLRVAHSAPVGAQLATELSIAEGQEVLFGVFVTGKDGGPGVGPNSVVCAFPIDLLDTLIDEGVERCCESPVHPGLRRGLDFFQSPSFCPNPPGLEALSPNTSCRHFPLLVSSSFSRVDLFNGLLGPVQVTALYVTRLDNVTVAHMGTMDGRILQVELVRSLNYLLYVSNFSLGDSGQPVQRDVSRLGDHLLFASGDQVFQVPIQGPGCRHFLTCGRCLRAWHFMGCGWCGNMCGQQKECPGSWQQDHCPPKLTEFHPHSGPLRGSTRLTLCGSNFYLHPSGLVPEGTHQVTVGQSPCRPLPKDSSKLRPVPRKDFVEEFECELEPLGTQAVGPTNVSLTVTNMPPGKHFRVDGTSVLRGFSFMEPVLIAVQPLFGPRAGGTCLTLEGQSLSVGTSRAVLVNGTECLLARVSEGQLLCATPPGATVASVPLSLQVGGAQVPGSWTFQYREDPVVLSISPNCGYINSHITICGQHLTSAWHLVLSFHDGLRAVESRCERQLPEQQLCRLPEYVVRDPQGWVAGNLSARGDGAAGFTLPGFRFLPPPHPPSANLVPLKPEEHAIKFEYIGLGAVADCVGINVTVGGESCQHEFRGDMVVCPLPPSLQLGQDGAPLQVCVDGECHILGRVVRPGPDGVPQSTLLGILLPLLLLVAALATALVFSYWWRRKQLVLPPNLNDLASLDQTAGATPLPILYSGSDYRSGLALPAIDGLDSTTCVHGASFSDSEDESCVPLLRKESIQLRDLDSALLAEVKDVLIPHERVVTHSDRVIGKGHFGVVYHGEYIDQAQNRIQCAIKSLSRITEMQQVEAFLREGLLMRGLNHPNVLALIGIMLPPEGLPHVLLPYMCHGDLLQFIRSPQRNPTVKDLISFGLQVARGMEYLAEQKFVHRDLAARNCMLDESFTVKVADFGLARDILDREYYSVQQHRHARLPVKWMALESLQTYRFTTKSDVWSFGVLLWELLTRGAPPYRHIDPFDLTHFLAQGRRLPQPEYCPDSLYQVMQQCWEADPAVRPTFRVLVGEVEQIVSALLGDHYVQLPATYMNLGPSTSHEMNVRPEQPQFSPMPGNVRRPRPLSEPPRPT
MET (human), sequence (P08581 25-1390): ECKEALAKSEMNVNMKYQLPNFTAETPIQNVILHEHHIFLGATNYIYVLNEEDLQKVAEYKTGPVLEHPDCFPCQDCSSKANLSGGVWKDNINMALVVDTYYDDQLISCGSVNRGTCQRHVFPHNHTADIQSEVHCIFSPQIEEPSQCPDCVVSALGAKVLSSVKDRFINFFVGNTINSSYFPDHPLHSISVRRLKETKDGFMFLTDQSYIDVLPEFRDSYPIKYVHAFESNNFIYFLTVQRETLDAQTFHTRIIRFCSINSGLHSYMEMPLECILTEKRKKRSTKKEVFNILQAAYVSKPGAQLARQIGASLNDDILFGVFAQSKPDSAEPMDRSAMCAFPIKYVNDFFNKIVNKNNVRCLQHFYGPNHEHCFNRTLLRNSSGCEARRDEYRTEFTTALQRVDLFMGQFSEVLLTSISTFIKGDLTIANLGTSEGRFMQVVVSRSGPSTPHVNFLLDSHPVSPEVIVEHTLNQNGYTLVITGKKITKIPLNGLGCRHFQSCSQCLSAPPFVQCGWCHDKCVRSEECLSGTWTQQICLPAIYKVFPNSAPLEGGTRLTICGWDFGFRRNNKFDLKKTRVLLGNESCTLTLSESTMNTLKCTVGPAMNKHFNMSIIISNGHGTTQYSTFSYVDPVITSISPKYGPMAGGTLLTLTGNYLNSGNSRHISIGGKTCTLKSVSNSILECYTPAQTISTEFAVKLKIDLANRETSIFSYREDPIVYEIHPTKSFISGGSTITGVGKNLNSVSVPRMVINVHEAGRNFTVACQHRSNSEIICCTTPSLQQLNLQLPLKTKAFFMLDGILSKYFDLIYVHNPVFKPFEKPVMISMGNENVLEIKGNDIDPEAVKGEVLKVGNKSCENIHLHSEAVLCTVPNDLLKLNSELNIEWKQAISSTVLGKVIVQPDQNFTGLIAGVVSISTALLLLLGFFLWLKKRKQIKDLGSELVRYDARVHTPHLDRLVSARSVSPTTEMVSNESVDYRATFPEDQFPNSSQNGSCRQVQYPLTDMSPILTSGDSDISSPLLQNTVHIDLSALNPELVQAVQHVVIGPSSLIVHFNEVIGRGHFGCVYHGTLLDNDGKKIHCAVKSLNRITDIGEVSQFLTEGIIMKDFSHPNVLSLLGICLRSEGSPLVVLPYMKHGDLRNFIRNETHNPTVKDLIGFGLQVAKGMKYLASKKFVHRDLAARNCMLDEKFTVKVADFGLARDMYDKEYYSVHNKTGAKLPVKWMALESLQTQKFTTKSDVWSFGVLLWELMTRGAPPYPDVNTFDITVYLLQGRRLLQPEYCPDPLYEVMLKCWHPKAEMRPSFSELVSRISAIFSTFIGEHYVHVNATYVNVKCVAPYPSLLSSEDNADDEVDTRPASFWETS

| Compound | IC50 (RON (human)) | IC50 (MET (human)) |
| --- | --- | --- |
| C[C@@H](Oc1c(N)ncc2c(-c3ccc(C(=O)O)s3)coc12)c1c(Cl)ccc(F)c1Cl [Example 206, 5-{6-Amino-7-[(R)-1-(2,6-dichloro-3-fluorophenyl)ethoxy]-furo[3,2-c]pyridin-3-yl}-thiophene-2-carboxylic acid] | 500 to 5000 nM | < 500 nM |
| CCNC(=O)c1ccc(-c2coc3c(O[C@H](C)c4c(Cl)ccc(F)c4Cl)c(N)ncc23)s1 [Example 207, 5-{6-Amino-7-[(R)-1-(2,6-dichloro-3-fluorophenyl)ethoxy]-furo[3,2-c]pyridin-3-yl}-thiophene-2-carboxylic acid ethyl amide] | 500 to 5000 nM | 500 to 5000 nM |
| C[C@@H](Oc1c(N)ncc2c(-c3ccc(C(=O)N(C)C)s3)coc12)c1c(Cl)ccc(F)c1Cl [Example 208, 5-{6-Amino-7-[(R)-1-(2,6-dichloro-3-fluorophenyl)ethoxy]-furo[3,2-c]pyridin-3-yl}-thiophene-2-carboxylic acid dimethyl amide] | 500 to 5000 nM | 500 to 5000 nM |
| C[C@@H](Oc1c(N)ncc2c(-c3ccc(C(N)=O)s3)coc12)c1c(Cl)ccc(F)c1Cl [Example 209, 5-{6-Amino-7-[(R)-1-(2,6-dichloro-3-fluorophenyl)ethoxy]-furo[3,2-c]pyridin-3-yl}-thiophene-2-carboxamide] | 500 to 5000 nM | 500 to 5000 nM |
| C[C@@H](Oc1c(N)ncc2c(-c3ccc(C=O)s3)coc12)c1c(Cl)ccc(F)c1Cl [Example 210, 5-{6-Amino-7-[(R)-1-(2,6-dichloro-3-fluorophenyl)ethoxy]-furo[3,2-c]pyridin-3-yl}-thiophene-2-carbaldehyde] | 500 to 5000 nM | 500 to 5000 nM |
| C[C@@H](Oc1c(N)ncc2c(-c3ccc(CO)s3)coc12)c1c(Cl)ccc(F)c1Cl [Example 212, (5-{6-Amino-7-[(R)-1-(2,6-dichloro-3-fluorophenyl)ethoxy]-furo[3,2-c]pyridin-3-yl}-thiophen-2-yl)methanol] | 500 to 5000 nM | 500 to 5000 nM |
| C[C@@H](Oc1c(N)ncc2c(-c3ccc(CN4CCCC4)s3)coc12)c1c(Cl)ccc(F)c1Cl [Example 213, 7-[(R)-1-(2,6-Dichloro-3-fluorophenyl)ethoxy]-3-(5-pyrrolidin-1-ylmethylthiophen-2-yl)-furo[3,2-c]pyridin-6-ylamine] | < 500 nM | < 500 nM |
| C[C@@H](Oc1c(N)ncc2c(-c3ccc(CN(C)C)s3)coc12)c1c(Cl)ccc(F)c1Cl [Example 214, 7-[(R)-1-(2,6-Dichloro-3-fluorophenyl)ethoxy]-3-(5-dimethyl-aminomethylthiophen-2-yl)-furo[3,2-c]pyridin-6-ylamine] | < 500 nM | < 500 nM |
| C[C@@H](Oc1c(N)ncc2c(-c3ccc(CN4CCCCC4)s3)coc12)c1c(Cl)ccc(F)c1Cl [Example 215, 7-[(R)-1-(2,6-Dichloro-3-fluorophenyl)ethoxy]-3-(5-piperidin-1-ylmethylthiophen-2-yl)-furo[3,2-c]pyridin-6-ylamine] | < 500 nM | < 500 nM |
| C[C@@H](Oc1c(N)ncc2c(-c3ccc(CN4CCC(O)CC4)s3)coc12)c1c(Cl)ccc(F)c1Cl [Example 216, 1-(5-{6-Amino-7-[(R)-1-(2,6-dichloro-3-fluorophenyl)ethoxy]-furo[3,2-c]pyridin-3-yl}-thiophen-2-ylmethyl)piperidin-4-ol] | < 500 nM | < 500 nM |
| C[C@@H](Oc1c(N)ncc2c(-c3ccc(CN4CCNCC4)s3)coc12)c1c(Cl)ccc(F)c1Cl [Example 217, 7-[(R)-1-(2,6-Dichloro-3-fluorophenyl)ethoxy]-3-(5-piperazin-1-ylmethylthiophen-2-yl)-furo[3,2-c]pyridin-6-ylamine] | < 500 nM | < 500 nM |
| C[C@@H](Oc1c(N)ncc2c(-c3ccc(CN4CCN(C)CC4)s3)coc12)c1c(Cl)ccc(F)c1Cl [Example 218, 7-[(R)-1-(2,6-Dichloro-3-fluorophenyl)ethoxy]-3-[5-(4-methylpiperazin-1-ylmethyl)-thiophen-2-yl]furo[3,2-c]pyridin-6-ylamine] | < 500 nM | < 500 nM |
| C[C@@H](Oc1c(N)ncc2c(-c3ccc(CN4CCSCC4)s3)coc12)c1c(Cl)ccc(F)c1Cl [Example 219, 7-[(R)-1-(2,6-Dichloro-3-fluorophenyl)ethoxy]-3-(5-thiomorpholin-4-ylmethylthiophen-2-yl)furo[3,2-c]pyridin-6-ylamine] | 500 to 5000 nM | 500 to 5000 nM |
| C[C@@H](Oc1c(N)ncc2c(-c3ccc(CN4CCC4)s3)coc12)c1c(Cl)ccc(F)c1Cl [Example 220, 3-(5-Azetidin-1-ylmethylthiophen-2-yl)-7-[(R)-1-(2,6-dichloro-3-fluorophenyl)ethoxy]furo[3,2-c]pyridin-6-ylamine] | < 500 nM | < 500 nM |
| CCN1CC2CC1CN2C(=O)N1CC=C(c2coc3c(O[C@H](C)c4c(Cl)ccc(F)c4Cl)c(N)ncc23)CC1 (stereo partly drawn) [Example 222, (4-{6-Amino-7-[(R)-1-(2,6-dichloro-3-fluorophenyl)ethoxy]-furo[3,2-c]pyridin-3-yl}-3,6-dihydro-2H-pyridin-1-yl)-(5-ethyl-2,5-diazabicyclo[2.2.1]hept-2-yl)-methanone] | < 500 nM | < 500 nM |
| C[C@@H](Oc1c(N)ncc2c(C3=CCN(C(=O)N4CC5CC4CO5)CC3)coc12)c1c(Cl)ccc(F)c1Cl (stereo partly drawn) [Example 223, (4-{6-Amino-7-[(R)-1-(2,6-dichloro-3-fluorophenyl)ethoxy]-furo[3,2-c]pyridin-3-yl}-3,6-dihydro-2H-pyridin-1-yl)-(2-oxa-5-azabicyclo[2.2.1]hept-5-yl)methanone] | 500 to 5000 nM | 500 to 5000 nM |
| C[C@@H](Oc1c(N)ncc2c(C3=CCN(C(=O)N4CCN(C)CC4)CC3)coc12)c1c(Cl)ccc(F)c1Cl [Example 225, (4-{6-Amino-7-[(R)-1-(2,6-dichloro-3-fluorophenyl)-ethoxy]-furo[3,2-c]pyridin-3-yl}-3,6-dihydro-2H-pyridin-1-yl)-(4-methylpiperazin-1-yl)-methanone] | < 500 nM | < 500 nM |
| C[C@@H](O)C(=O)N1CC=C(c2coc3c(O[C@H](C)c4c(Cl)ccc(F)c4Cl)c(N)ncc23)CC1 [Example 226, (R)-1-(4-{6-Amino-7-[(R)-1-(2,6-dichloro-3-fluorophenyl)ethoxy]-furo[3,2-c]pyridin-3-yl}-3,6-dihydro-2H-pyridin-1-yl)-2-hydroxypropan-1-one] | < 500 nM | < 500 nM |
| C[C@H](O)C(=O)N1CC=C(c2coc3c(O[C@H](C)c4c(Cl)ccc(F)c4Cl)c(N)ncc23)CC1 [Example 227, (S)-1-(4-{6-Amino-7-[(R)-1-(2,6-dichloro-3-fluorophenyl)ethoxy]-furo[3,2-c]pyridin-3-yl}-3,6-dihydro-2H-pyridin-1-yl)-2-hydroxypropan-1-one] | 500 to 5000 nM | < 500 nM |
| C[C@@H](Oc1c(N)ncc2c(C3=CCN(C(=O)C(C)(C)O)CC3)coc12)c1c(Cl)ccc(F)c1Cl [Example 228, 1-(4-{6-Amino-7-[(R)-1-(2,6-dichloro-3-fluorophenyl)ethoxy]-furo[3,2-c]pyridin-3-yl}-3,6-dihydro-2H-pyridin-1-yl)-2-hydroxy-2-methylpropan-β-one] | 500 to 5000 nM | 500 to 5000 nM |
| CC(O)C(=O)N1CC=C(c2coc3c(O[C@H](C)c4c(Cl)ccc(F)c4Cl)c(N)ncc23)CC1 (stereo partly drawn) [Example 229, 1-(4-{6-Amino-7-[(R)-1-(2,6-dichloro-3-fluorophenyl)ethoxy]-furo[3,2-c]pyridin-3-yl}-3,6-dihydro-2H-pyridin-1-yl)-2-hydroxypropan-1-one] | < 500 nM | < 500 nM |
| C[C@@H](Oc1c(N)ncc2c(C3=CCN(C(=O)c4cnn[nH]4)CC3)coc12)c1c(Cl)ccc(F)c1Cl [Example 230, (4-{6-Amino-7-[(R)-1-(2,6-dichloro-3-fluorophenyl)ethoxy]-furo[3,2-c]pyridin-3-yl}-3,6-dihydro-2H-pyridin-1-yl)-(3H-[1,2,3]triazol-4-yl)-methanone] | 500 to 5000 nM | 500 to 5000 nM |
| C[C@@H](Oc1c(N)ncc2c(C3=CCN(C(=O)c4ccn[nH]4)CC3)coc12)c1c(Cl)ccc(F)c1Cl [Example 231, (4-{6-Amino-7-[(R)-1-(2,6-dichloro-3-fluorophenyl)ethoxy]-furo[3,2-c]pyridin-3-yl}-3,6-dihydro-2H-pyridin-1-yl)-(2H-pyrazol-3-yl)-methanone] | 500 to 5000 nM | 500 to 5000 nM |
| C[C@@H](Oc1c(N)ncc2c(C3=CCN(C(=O)c4ncc[nH]4)CC3)coc12)c1c(Cl)ccc(F)c1Cl [Example 232, (4-{6-Amino-7-[(R)-1-(2,6-dichloro-3-fluorophenyl)ethoxy]-furo[3,2-c]pyridin-3-yl}-3,6-dihydro-2H-pyridin-1-yl)-(1H-imidazol-2-yl)-methanone] | 500 to 5000 nM | 500 to 5000 nM |
| C[C@@H](Oc1c(N)ncc2c(C3=CCN(C(=O)c4cnc[nH]4)CC3)coc12)c1c(Cl)ccc(F)c1Cl [Example 233, (4-{6-Amino-7-[(R)-1-(2,6-dichloro-3-fluorophenyl)ethoxy]-furo[3,2-c]pyridin-3-yl}-3,6-dihydro-2H-pyridin-1-yl)-(3H-imidazol-4-yl)-methanone] | 500 to 5000 nM | 500 to 5000 nM |
| C[C@@H](Oc1c(N)ncc2c(C3=CCN(C(=O)c4ccc[nH]4)CC3)coc12)c1c(Cl)ccc(F)c1Cl [Example 234, (4-{6-Amino-7-[(R)-1-(2,6-dichloro-3-fluorophenyl)ethoxy]-furo[3,2-c]pyridin-3-yl}-3,6-dihydro-2H-pyridin-1-yl)-(1H-pyrrol-2-yl)-methanone] | 500 to 5000 nM | 500 to 5000 nM |
